Measured values published in paper PMC8626775, “Anti-schistosomal activities of quinoxaline-containing compounds: From hit identification to lead optimisation” (European Journal of Medicinal Chemistry, 2021).
Where two headings read alike, the source gives them in different places.

Experiments:
S. mansoni schistosomula = S. mansoni schistosomula high-throughput phenotype and motility screen (Roboworm), 72 h; assay type: cell-based, Schistosoma mansoni; settings: Schistosoma mansoni
Protocol: Cercariae derived from the NMRI ([…]) Puerto Rican strain (PR-1) of S. mansoni were shed from two Biomphalaria glabrata strains, the NMRI albino and pigmented outbred strains, under intensified lighting conditions (1 h of incubation at 26 °C). Cercariae were then mechanically transformed into schistosomula as previously described.
High-throughput screening (HTS) of selected compounds was conducted as previously described. Briefly, newly transformed schistosomula were distributed in a 384-well tissue culture plate (PerkinElmer, cat 6007460, seeding density of 120 parasites/well). Each compound (at a single concentration or two-fold titrations) was transferred into individual wells alongside the positive and negative controls (AUR at 10 μM final concentration in 0.625% DMSO and 0.625% DMSO, respectively). Schistosomula/compound co-cultures were then incubated at 37 °C for 72 h in a humidified atmosphere containing 5% CO2. Following the co-culture period, automatic assessment of compound-induced schistosomula motility and phenotypic changes were conducted with the high-content imaging platform Roboworm using the image analysis model previously described by Paveley et al..

S. mansoni adult worms = assay: S. mansoni adult worm motility screen (WormassayGP2), 72 h; assay type: cell-based, Schistosoma mansoni; settings: Schistosoma mansoni
Text: Mice (Mus musculus HsdOLa:TO - Tuck Ordinary; Envigo, UK) were used for the mammalian-specific propagation of the S. mansoni life cycle. Experimental animals were infected with 4000 or 180 S. mansoni cercariae/mouse and perfused three- or seven-weeks post-infection to obtain S. mansoni juvenile or adult worms, respectively. Preparation steps following perfusion have been described previously. Briefly, the parasite material was washed three times with pre-warmed adult worm media (DMEM (Gibco, Paisley, UK) supplemented with 10% (v/v) Fetal Calf Serum (FCS, Gibco, Paisley, UK), 1% (v/v) L-glutamine (Gibco, Paisley, UK) and an antibiotic mixture (150 Units/ml penicillin and 150 μg/ml streptomycin; Gibco, UK)) to remove residual host contamination and incubated in a humidified environment containing 5% CO2 at 37 °C for at least 1 h.
For the evaluation of anti-schistosomal activity on the adult stage of the parasite, 7-wk old worms were transferred into 48 well tissue culture plates (1–3 worm pairs/well, in duplicate). […] DMSO (0.5%) and praziquantel (10 μM in 0.5% DMSO) were also included as negative and positive control treatments. Treated adult worms were incubated for 72 h in a humidified environment containing 5% CO2 at 37 °C. Parasite motility after compound treatment was assessed by a digital image processing-based system (WormassayGP2), modified after Wormassay. Following compound-parasite co-incubation, eggs were collected, fixed in formalin (10% v/v formaldehyde) and enumerated aiming to collect further information on any compound-induced effects on parasite fecundity and IVLE production.

HepG2 cells = assay: HepG2 MTT cytotoxicity assay; settings: for Selectivity Index (SI) Adult worms: HepG2 CC50 versus adult worm EC50; for Selectivity Index (SI) Somula: HepG2 CC50 versus schistosomula EC50; for Toxicity on HepG2 in words: 24 h
Protocol: Initially the cells were handled under sterile conditions and grown at 37 °C in a humidified atmosphere containing 5% CO2. Cytotoxicity was evaluated by way of a 3-(4, 5- dimethylthiazol-2-yl)-2,5-diphenyl tetrazolium bromide (MTT) assay as previously described. The cells were counted in a dual chamber counting slide using the BIORAD TC-10 Automated cell counter, seeded in a 96-well plate (Fisher Scientific, Loughborough, UK) at a density of 2 × 10^4 cells/well and incubated in an atmosphere of 5% CO2 at 37 °C. […] The absorbance readings (at 570 nm) of the soluble formazan crystals were recorded using PolarStar Omega plate reader (BMG-Labtech). […] The latter was used to calculate the selectivity index (SI) of the compounds presented herein.

[1] = test system: adult S. japonicum male worms; assay: In vitro screening of S. japonicum adults at 100 nM (WormAssay motility, descriptors, severity score); assay type: cell-based, Schistosoma japonicum
Protocol: For each species, parasite recovery involved reverse perfusion of the hepatic portal and mesenteric system using DMEM (Fisher Scientific). Parasites were washed six times with Basch 169 medium supplemented with 100 U/ml penicillin and 100 μg/ml streptomycin before manually distributing approximately 5 males per well (on occasion 1 or 2 females might also be present) of a 24-well plate (Corning Costar 3524). […] The next morning, a final concentration of 100 nM compound (in 1 μL DMSO) was added to each well and the final volume made up to 2 ml with Basch 169 medium supplemented with antibiotics and FBS. Each compound was tested in triplicate (except for some instances tested in duplicate). […] The phenotypic characterisation of compound effects focused on male worms due to the greater range of their motility characteristics that include flexing, bending, stretching, sucker walking and adherence, compared to the more sedentary female worms. In addition to descriptors, WormAssay, as adapted for the schistosome, was used to measure average worm motility per well [72, 73].

[2] = 72 h, Table 2, average of phenotype and motility EC50, 72 h, read-out: Activity on schistosomula (EC50, μM - 72 h) Average
[3] = 72 h, Table 2, motility, 72 h, three replicate titrations (0.313–10 μM), read-out: Activity on schistosomula (EC50, μM - 72 h) M
[4] = 72 h, Table 2, phenotype, 72 h, three replicate titrations (0.313–10 μM), read-out: Activity on schistosomula (EC50, μM - 72 h) P
[5] = 72 h, read-out: EC50 on schistosomula (bounds and ranges given)
[6] = Table 5, Series C, read-out: Anti-schistosomal activity EC50 Schistosomula (μM) Motility
[7] = Table 5, Series C, read-out: Anti-schistosomal activity EC50 Schistosomula (μM) Phenotype
[8] = Table 5, Series C, read-out: Anti-schistosomal activity EC50 Adult (nM) Motility
[9] = Table 2, 72 h, titrations 0.0095–5 μM, WormassayGP2, read-out: Activity on adult worms (EC50, μM - 72 h) Motility
[10] = Table 4, Series A, read-out: Anti-schistosomal activity EC50 Schistosomula (μM) Motility
[11] = Table 4, Series A, read-out: Anti-schistosomal activity EC50 Schistosomula (μM) Phenotype
[12] = Table 4, Series A, read-out: Anti-schistosomal activity EC50 Adult (nM) Motility

Structure (SMILES) | EC50 (S. mansoni schistosomula; [2]) [µM] | EC50 (S. mansoni schistosomula; [3]) [µM] | EC50 (S. mansoni schistosomula; [4]) [µM] | EC50 (S. mansoni schistosomula; [5]) [µM] | EC50 (S. mansoni schistosomula; [6]) [µM] | EC50 (S. mansoni schistosomula; [7]) [µM] | EC50 (S. mansoni adult worms; [9]) [nM] | Selectivity Index (SI) Adult worms (HepG2 cells) | Selectivity Index (SI) Somula (HepG2 cells) | EC50 (S. mansoni schistosomula; [10]) [µM] | EC50 (S. mansoni schistosomula; [11]) [µM] | EC50 (S. mansoni adult worms; [12]) [nM] | Toxicity on HepG2 in words (HepG2 cells) | other results
CC(=O)Nc1ccc2nc(Nc3ccc(Cl)c(Cl)c3)c(Nc3ccc(Cl)c(Cl)c3)nc2c1 [Compound 22c, N-(2,3-bis((3,4-dichlorophenyl)amino)quinoxalin-6-yl)acetamide] | 2.91 | 2.79 | 3.04 | > 2 | 2.79 | 3.04 | 704 | 6.52 | 1.57 |  |  |  |  | EC50 (S. mansoni adult worms; [8]): 704 nM
O=[N+]([O-])c1ccc2nc(Nc3ccc(F)c(C(F)(F)F)c3)c(Nc3ccc(F)c(C(F)(F)F)c3)nc2c1 [Compound 32, N2, N3-bis(4-fluoro-3-(trifluoromethyl)phenyl)-6-nitroquinoxaline-2,3-diamine] | 0.72 | 0.54 | 0.89 |  |  |  | 11 | 60.99 | 0.94 | 0.54 | 0.89 | 11 |  | 
O=C(Nc1ccc2nc(Nc3ccc(Cl)c(Cl)c3)c(Nc3ccc(Cl)c(Cl)c3)nc2c1)c1ccco1 [Compound 22f, N-(2,3-bis((3,4-dichlorophenyl)amino)quinoxalin-6-yl)furan-2-carboxamide] | 1.95 | 2 | 1.91 |  | 2 | 1.91 |  |  | 2.91 |  |  |  |  | 
O=[N+]([O-])c1ccc2nc(Nc3ccc(Br)cc3)c(Nc3ccc(Br)cc3)nc2c1 [Compound 29, N2, N3-bis(4-bromophenyl)-6-nitroquinoxaline-2,3-diamine] | 0.71 | 0.65 | 0.78 |  |  |  | 122 | 32.52 | 5.55 | 0.83 | 1.06 | 122 |  | 
O=[N+]([O-])c1ccc2nc(NCc3ccccc3)c(NCc3ccccc3)nc2c1 [Compound 36, N2, N3-dibenzyl-6-nitroquinoxaline-2,3-diamine] | 2.91 | 2.64 | 3.19 | > 2 |  |  |  |  | 1.74 |  |  |  |  | EC50 (S. mansoni schistosomula; Table 3, read-out: Anti-schistosomal activity EC50 (μM) Schistosomula Motility): 2.64 µM; EC50 (S. mansoni schistosomula; Table 3, read-out: Anti-schistosomal activity EC50 (μM) Schistosomula Phenotype): 3.19 µM
O=[N+]([O-])c1ccc2nc(Nc3cccc(Cl)c3)c(Nc3cccc(Cl)c3)nc2c1 [Compound 25, N^2, N^3-bis(3-chlorophenyl)-6-nitroquinoxaline-2,3-diamine] | 1.26 | 1.3 | 1.22 |  |  |  | 12 | 47.99 | 0.46 | 1.3 | 1.22 | 12 |  | Effect on S. japonicum adult male worms ([1]; 5, 24, 48 and 72 h): decreased motility starting at 48 h; SEVERITY SCORES 5 h ([1]; S. japonicum, 5 h, max = 4, one line per replicate): 0; SEVERITY SCORES 24 h ([1]; S. japonicum, 24 h, max = 4, one line per replicate): 0; SEVERITY SCORES 48 h ([1]; S. japonicum, 48 h, max = 4, one line per replicate): 2; DESCRIPTORS 48 h ([1]; S. japonicum, 48 h, one line per replicate): S, on sides; SEVERITY SCORES 72 h ([1]; S. japonicum, 72 h, max = 4, one line per replicate): 2; DESCRIPTORS 72 h ([1]; S. japonicum, 72 h, one line per replicate): S+, on sides
Nc1ccc2nc(Nc3ccc(Cl)c(Cl)c3)c(Nc3ccc(Cl)c(Cl)c3)nc2c1 [Compound 22a, N^2, N^3-bis(3,4-dichlorophenyl)quinoxaline-2,3,6-triamine] | 3.38 | 3.25 | 3.51 | > 2 |  |  |  |  |  |  |  |  | low toxicity | 
CCCCCC(=O)Nc1ccc2nc(Nc3ccc(Cl)c(Cl)c3)c(Nc3ccc(Cl)c(Cl)c3)nc2c1 [Compound 22d, N-(2,3-bis((3,4-dichlorophenyl)amino)quinoxalin-6-yl)hexanamide] | 1.41 | 1.8 | 1.02 |  | 1.8 | 1.02 | 318 | 7.65 | 1.72 |  |  |  | low toxicity | EC50 (S. mansoni adult worms; [8]): 318 nM
O=[N+]([O-])c1ccc2nc(Nc3ccc(F)cc3)c(Nc3ccc(F)cc3)nc2c1 [Compound 28, N2, N3-bis(4-fluorophenyl)-6-nitroquinoxaline-2,3-diamine] | 1.77 | 1.4 | 2.14 |  |  |  | 382 |  |  | 1.4 | 2.14 | 382 | low toxicity | 
